Assay results from patent US20250346574A1, “PYRIDINYL SUBSTITUTED OXOISOINDOLINE COMPOUNDS FOR THE TREATMENT OF CANCER” (Bristol-Myers Squibb Company, priority 2021, published 2025).

molecular target: Helios (Homo sapiens, UniProt Q96SW2+Q9UKS7); test: Helios Human T Regulatory Cells Degradation Assay; format: cell-based; design: fluorescently labelled antibodies against Helios in 1× Permeabilization buffer; endogenous in cells; host or cells: cryopreserved human T regulatory cells; conditions: cryopreserved human T regulatory cells, incubated 20 hours, Helios-APC antibody staining, flow cytometry; read-out: hTreg Helios DC50
Summary of the method: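 Cryopreserved human Treg cells thawed in RPMI+10% FBS+20 ng/mL IL-2, rested 3 h, then incubated with compound 20 hours at 37° C, 5% CO2. Near-IR viability stain, permeabilization, flow cytometry read-out.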

Sequence of Helios (Q9UKS7 whole entry): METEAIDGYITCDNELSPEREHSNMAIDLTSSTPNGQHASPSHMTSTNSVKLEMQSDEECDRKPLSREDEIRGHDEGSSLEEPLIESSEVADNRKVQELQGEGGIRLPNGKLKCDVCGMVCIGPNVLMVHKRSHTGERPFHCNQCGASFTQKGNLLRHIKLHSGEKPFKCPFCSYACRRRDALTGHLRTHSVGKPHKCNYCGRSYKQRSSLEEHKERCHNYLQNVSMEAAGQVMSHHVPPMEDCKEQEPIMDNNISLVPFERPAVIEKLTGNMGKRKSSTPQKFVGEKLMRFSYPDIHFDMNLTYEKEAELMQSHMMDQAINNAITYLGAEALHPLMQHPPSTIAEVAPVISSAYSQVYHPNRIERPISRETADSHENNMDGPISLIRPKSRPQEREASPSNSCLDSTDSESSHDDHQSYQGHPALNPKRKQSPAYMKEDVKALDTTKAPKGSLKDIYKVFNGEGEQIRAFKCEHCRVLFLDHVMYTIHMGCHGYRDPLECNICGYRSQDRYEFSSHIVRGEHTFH
Sequence of Helios (Q96SW2 whole entry): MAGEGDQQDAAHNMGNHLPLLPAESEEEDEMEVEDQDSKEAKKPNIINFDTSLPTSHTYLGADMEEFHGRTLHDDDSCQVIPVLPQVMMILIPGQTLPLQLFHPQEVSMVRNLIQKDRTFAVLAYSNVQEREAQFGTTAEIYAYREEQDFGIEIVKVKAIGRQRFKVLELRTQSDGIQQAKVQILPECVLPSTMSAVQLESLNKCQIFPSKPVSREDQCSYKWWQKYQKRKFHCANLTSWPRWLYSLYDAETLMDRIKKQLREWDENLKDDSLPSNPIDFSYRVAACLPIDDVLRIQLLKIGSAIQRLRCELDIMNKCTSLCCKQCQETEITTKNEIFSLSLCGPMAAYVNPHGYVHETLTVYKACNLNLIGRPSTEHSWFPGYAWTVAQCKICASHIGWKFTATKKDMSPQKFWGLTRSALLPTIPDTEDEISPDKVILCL
Sequence of Helios (Q16531 whole entry partner): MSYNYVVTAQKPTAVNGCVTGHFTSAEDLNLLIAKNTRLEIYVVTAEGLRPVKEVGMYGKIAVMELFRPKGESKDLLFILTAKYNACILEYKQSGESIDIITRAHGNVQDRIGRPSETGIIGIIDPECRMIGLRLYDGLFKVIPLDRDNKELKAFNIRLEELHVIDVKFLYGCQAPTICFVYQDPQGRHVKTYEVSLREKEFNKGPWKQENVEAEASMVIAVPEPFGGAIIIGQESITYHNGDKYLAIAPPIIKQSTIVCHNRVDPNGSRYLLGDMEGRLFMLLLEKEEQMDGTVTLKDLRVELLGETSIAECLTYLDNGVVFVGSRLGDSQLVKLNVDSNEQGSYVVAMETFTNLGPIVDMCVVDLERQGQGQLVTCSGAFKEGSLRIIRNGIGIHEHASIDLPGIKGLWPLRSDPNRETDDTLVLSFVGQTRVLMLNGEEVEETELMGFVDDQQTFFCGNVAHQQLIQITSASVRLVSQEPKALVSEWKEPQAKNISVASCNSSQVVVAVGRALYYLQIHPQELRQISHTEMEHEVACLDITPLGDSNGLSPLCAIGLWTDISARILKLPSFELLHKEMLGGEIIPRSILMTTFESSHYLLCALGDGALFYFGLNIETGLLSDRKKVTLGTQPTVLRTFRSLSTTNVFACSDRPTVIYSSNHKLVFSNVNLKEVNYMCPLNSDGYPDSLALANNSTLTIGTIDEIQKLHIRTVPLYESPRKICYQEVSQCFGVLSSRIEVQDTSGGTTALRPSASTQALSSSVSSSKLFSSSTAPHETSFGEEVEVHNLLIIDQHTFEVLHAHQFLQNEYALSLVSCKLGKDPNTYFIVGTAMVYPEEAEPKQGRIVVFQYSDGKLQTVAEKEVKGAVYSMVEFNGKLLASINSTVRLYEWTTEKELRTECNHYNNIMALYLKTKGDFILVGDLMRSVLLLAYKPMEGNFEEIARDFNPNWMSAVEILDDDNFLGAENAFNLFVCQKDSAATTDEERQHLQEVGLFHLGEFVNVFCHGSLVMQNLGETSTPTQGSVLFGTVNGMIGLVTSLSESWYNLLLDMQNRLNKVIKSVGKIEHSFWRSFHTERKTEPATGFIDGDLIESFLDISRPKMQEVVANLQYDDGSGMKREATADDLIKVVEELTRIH

| Compound | DC50 |
| --- | --- |
| O=C1CCC(N2Cc3cc(-c4nccc(CN5CCC(O)(c6ccccc6)C5)c4F)ccc3C2=O)C(=O)N1 (stereo not shown) [Example 257, 3-(5-(3-fluoro-4-((3-hydroxy-3-phenylpyrrolidin-1-yl)methyl)pyridin-2-yl)-1-oxoisoindolin-2-yl)piperidine-2,6-dione] | ≥ 10000 nM |
| O=C1CCC(N2Cc3cc(-c4nccc(CN5CC[C@@H](F)C5)c4F)ccc3C2=O)C(=O)N1 (stereo partly drawn) [Example 258, 3-(5-(3-fluoro-4-(((R)-3-fluoropyrrolidin-1-yl)methyl)pyridin-2-yl)-1-oxoisoindolin-2-yl)piperidine-2,6-dione] | ≥ 10000 nM |
| O=C1CCC(N2Cc3cc(-c4nccc(CN5CCc6oncc6C5)c4F)ccc3C2=O)C(=O)N1 (stereo not shown) [Example 259, 3-(5-(4-((6,7-dihydroisoxazolo[4,5-c]pyridin-5(4H)-yl)methyl)-3-fluoropyridin-2-yl)-1-oxoisoindolin-2-yl)piperidine-2,6-dione] | ≥ 10000 nM |
| O=C1CCC(N2Cc3cc(-c4nccc(CN5CCC(F)CC5)c4F)ccc3C2=O)C(=O)N1 (stereo not shown) [Example 260, 3-(5-(3-fluoro-4-((4-fluoropiperidin-1-yl)methyl)pyridin-2-yl)-1-oxoisoindolin-2-yl)piperidine-2,6-dione] | 140 nM |
| O=C1CCC(N2Cc3cc(-c4nccc(CN5CCC(F)(F)CC5)c4F)ccc3C2=O)C(=O)N1 (stereo not shown) [Example 261, 3-(5-(4-((4,4-difluoropiperidin-1-yl)methyl)-3-fluoropyridin-2-yl)-1-oxoisoindolin-2-yl)piperidine-2,6-dione] | ≥ 10000 nM |
| Cc1nnc2n1CCN(Cc1ccnc(-c3ccc4c(c3)CN(C3CCC(=O)NC3=O)C4=O)c1F)C2 (stereo not shown) [Example 262, 3-(5-(3-fluoro-4-((3-methyl-5,6-dihydro-[1,2,4]triazolo[4,3-a]pyrazin-7(8H)-yl)methyl)pyridin-2-yl)-1-oxoisoindolin-2-yl)piperidine-2,6-dione] | ≥ 10000 nM |
| O=C1CCC(N2Cc3cc(-c4nccc(CN5CCn6cnnc6C5)c4F)ccc3C2=O)C(=O)N1 (stereo not shown) [Example 263, 3-(5-(4-((5,6-dihydro-[1,2,4]triazolo[4,3-a]pyrazin-7(8H)-yl)methyl)-3-fluoropyridin-2-yl)-1-oxoisoindolin-2-yl)piperidine-2,6-dione] | 1230 nM |
| Cc1c2c(nn1C)CCN(Cc1ccnc(-c3ccc4c(c3)CN(C3CCC(=O)NC3=O)C4=O)c1F)C2 (stereo not shown) [Example 265, 3-(5-(4-((2,3-dimethyl-2,4,6,7-tetrahydro-5H-pyrazolo[4,3-c]pyridin-5-yl)methyl)-3-fluoropyridin-2-yl)-1-oxoisoindolin-2-yl)piperidine-2,6-dione] | ≥ 10000 nM |
| O=C1CCC(N2Cc3cc(-c4nccc(CN5CCn6c(nnc6C(F)(F)F)C5)c4F)ccc3C2=O)C(=O)N1 (stereo not shown) [Example 266, 3-(5-(3-fluoro-4-((3-(trifluoromethyl)-5,6-dihydro-[1,2,4]triazolo[4,3-a]pyrazin-7(8H)-yl)methyl)pyridin-2-yl)-1-oxoisoindolin-2-yl)piperidine-2,6-dione] | ≥ 10000 nM |
| O=C1CCC(N2Cc3cc(-c4nccc(CN5CCc6c(ccnc6Cl)C5)c4F)ccc3C2=O)C(=O)N1 (stereo not shown) [Example 267, 3-(5-(4-((5-chloro-3,4-dihydro-2,6-naphthyridin-2(1H)-yl)methyl)-3-fluoropyridin-2-yl)-1-oxoisoindolin-2-yl)piperidine-2,6-dione] | ≥ 10000 nM |
| O=C1CCC(N2Cc3cc(-c4nccc(CN5CCc6cccc(Cl)c6C5)c4F)ccc3C2=O)C(=O)N1 (stereo not shown) [Example 268, 3-(5-(4-((8-chloro-3,4-dihydroisoquinolin-2(1H)-yl)methyl)-3-fluoropyridin-2-yl)-1-oxoisoindolin-2-yl)piperidine-2,6-dione] | ≥ 10000 nM |
| CC(=O)N1CCCC12CCN(Cc1ccnc(-c3ccc4c(c3)CN(C3CCC(=O)NC3=O)C4=O)c1F)C2 (stereo not shown) [Example 270, 3-(5-(4-((1-acetyl-1,7-diazaspiro[4.4]nonan-7-yl)methyl)-3-fluoropyridin-2-yl)-1-oxoisoindolin-2-yl)piperidine-2,6-dione] | ≥ 10000 nM |
| COC(=O)N1CCCC12CCN(Cc1ccnc(-c3ccc4c(c3)CN(C3CCC(=O)NC3=O)C4=O)c1F)C2 (stereo not shown) [Example 271, methyl 7-((2-(2-(2,6-dioxopiperidin-3-yl)-1-oxoisoindolin-5-yl)-3-fluoropyridin-4-yl)methyl)-1,7-diazaspiro[4.4]nonane-1-carboxylate] | ≥ 10000 nM |
| CC(=O)N1CCC2(CN(Cc3ccnc(-c4ccc5c(c4)CN(C4CCC(=O)NC4=O)C5=O)c3F)C2)C1 (stereo not shown) [Example 272, 3-(5-(4-((6-acetyl-2,6-diazaspiro[3.4]octan-2-yl)methyl)-3-fluoropyridin-2-yl)-1-oxoisoindolin-2-yl)piperidine-2,6-dione] | 280 nM |
| COC(=O)N1CCC2(CN(Cc3ccnc(-c4ccc5c(c4)CN(C4CCC(=O)NC4=O)C5=O)c3F)C2)C1 (stereo not shown) [Example 273, methyl 2-((2-(2-(2,6-dioxopiperidin-3-yl)-1-oxoisoindolin-5-yl)-3-fluoropyridin-4-yl)methyl)-2,6-diazaspiro[3.4]octane-6-carboxylate] | 280 nM |
| CC(=O)N1CC2CCCN(Cc3ccnc(-c4ccc5c(c4)CN(C4CCC(=O)NC4=O)C5=O)c3F)C2C1 (stereo not shown) [Example 274, 3-(5-(4-((6-acetyloctahydro-1H-pyrrolo[3,4-b]pyridin-1-yl)methyl)-3-fluoropyridin-2-yl)-1-oxoisoindolin-2-yl)piperidine-2,6-dione] | ≥ 10000 nM |
| COC(=O)N1CC2CCCN(Cc3ccnc(-c4ccc5c(c4)CN(C4CCC(=O)NC4=O)C5=O)c3F)C2C1 (stereo not shown) [Example 275, methyl 1-((2-(2-(2,6-dioxopiperidin-3-yl)-1-oxoisoindolin-5-yl)-3-fluoropyridin-4-yl)methyl)octahydro-6H-pyrrolo[3,4-b]pyridine-6-carboxylate] | ≥ 10000 nM |
| CC(C)(O)C1CCN(Cc2ccnc(-c3ccc4c(c3F)CN(C3CCC(=O)NC3=O)C4=O)c2F)CC1 (stereo not shown) [Example 276, 3-(4-fluoro-5-(3-fluoro-4-((4-(2-hydroxypropan-2-yl)piperidin-1-yl)methyl)pyridin-2-yl)-1-oxoisoindolin-2-yl)piperidine-2,6-dione] | 28 nM |
| O=C1CCC(N2Cc3c(ccc(-c4nccc(CN5CC[C@H](CO)C5)c4F)c3F)C2=O)C(=O)N1 (stereo partly drawn) [Example 277, 3-(4-fluoro-5-(3-fluoro-4-(((S)-3-(hydroxymethyl)pyrrolidin-1-yl)methyl)pyridin-2-yl)-1-oxoisoindolin-2-yl)piperidine-2,6-dione] | 31.9 nM |
| CC(C)(O)[C@@H]1CCN(Cc2ccnc(-c3ccc4c(c3F)CN(C3CCC(=O)NC3=O)C4=O)c2F)C1 (stereo partly drawn) [Example 278, 3-(4-fluoro-5-(3-fluoro-4-(((R)-3-(2-hydroxypropan-2-yl)pyrrolidin-1-yl)methyl)pyridin-2-yl)-1-oxoisoindolin-2-yl)piperidine-2,6-dione] | 31.8 nM |
| CC(C)(O)[C@H]1CCN(Cc2ccnc(-c3ccc4c(c3F)CN(C3CCC(=O)NC3=O)C4=O)c2F)C1 (stereo partly drawn) [Example 279, 3-(4-fluoro-5-(3-fluoro-4-(((S)-3-(2-hydroxypropan-2-yl)pyrrolidin-1-yl)methyl)pyridin-2-yl)-1-oxoisoindolin-2-yl)piperidine-2,6-dione] | 34.3 nM |
| O=C1CCC(N2Cc3c(ccc(-c4nccc(CN5CCC(O)(c6ccccc6)CC5)c4F)c3F)C2=O)C(=O)N1 (stereo not shown) [Example 280, 3-(4-fluoro-5-(3-fluoro-4-((4-hydroxy-4-phenylpiperidin-1-yl)methyl)pyridin-2-yl)-1-oxoisoindolin-2-yl)piperidine-2,6-dione] | ≥ 10000 nM |
| CC(C)(O)C1CN(Cc2ccnc(-c3ccc4c(c3F)CN(C3CCC(=O)NC3=O)C4=O)c2F)C1 (stereo not shown) [Example 281, 3-(4-fluoro-5-(3-fluoro-4-((3-(2-hydroxypropan-2-yl)azetidin-1-yl)methyl)pyridin-2-yl)-1-oxoisoindolin-2-yl)piperidine-2,6-dione] | 22.1 nM |
| O=C1CCC(N2Cc3c(ccc(-c4nccc(CN5CCn6c(nnc6C(F)(F)F)C5)c4F)c3F)C2=O)C(=O)N1 (stereo not shown) [Example 282, 3-(4-fluoro-5-(3-fluoro-4-((3-(trifluoromethyl)-5,6-dihydro-[1,2,4]triazolo[4,3-a]pyrazin-7(8H)-yl)methyl)pyridin-2-yl)-1-oxoisoindolin-2-yl)piperidine-2,6-dione] | ≥ 10000 nM |
| O=C1CCC(N2Cc3c(ccc(-c4nccc(CN5CCc6c(ccnc6Cl)C5)c4F)c3F)C2=O)C(=O)N1 (stereo not shown) [Example 283, 3-(5-(4-((5-chloro-3,4-dihydro-2,6-naphthyridin-2(1H)-yl)methyl)-3-fluoropyridin-2-yl)-4-fluoro-1-oxoisoindolin-2-yl) piperidine-2,6-dione] | ≥ 10000 nM |
